Assay results: US20050229276A1, “Method of producing cyclamen root tuber and method of proliferating cyclamen using the same” (Tokyo University of Agricultural, priority 2002, published 2005)

System: cyclamen (cultivar: Dressy Scarlet) seedling
Assay: Growth of root tubers at cut root ends of seedlings in solid media
Type: in vivo
Protocol: A cyclamen (cultivar: Dressy Scarlet) seed was immersed in an ethyl alcohol aqueous solution having an ethyl alcohol concentration of 70 wt % for 10 seconds and in a sodium hypochlorite solution having an effective chlorine concentration of 1 wt % for 10 minutes to sterilize the surface of the seed. Thereafter, this seed was washed in sterilized water 3 times to remove the sodium hypochlorite from the surface of the seed. This was sown in an MS solid medium containing 30 g/l of sucrose and 6 g/l of agar under a germ-free condition and cultured at a temperature of 20° C. under weak light for 30 days to be germinated and rooted.
The end portions of the roots of the above germinated and rooted cyclamen seedling were cut off with a scalpel, and the seedling was planted in the following solid media. As the media, a large number of experimental plots were prepared by adding NAA and BA as phytohormones to the ⅓ MS medium in concentrations shown in Tables 1 to 3 and further adding 30 to 90 g/l of sucrose. 6 g/l of agar was added to all of the media which were then sterilized in an autoclave to prepare media having a pH of 7.0. 10 ml of each of the solid media was placed in a 50 ml culture test tube. The stationary culture of the seedling planted in each of the media was carried out at 20° C. under weak light for a certain number of days to grow root tubers at the end portions of its roots.

[1] = sucrose 50 g/l, BA 1.0 mg/l, NAA 0.00 mg/l, 30-th day
[2] = sucrose 50 g/l, BA 1.0 mg/l, NAA 0.01 mg/l, 30-th day
[3] = sucrose 50 g/l, BA 1.0 mg/l, NAA 0.05 mg/l, 30-th day
[4] = sucrose 50 g/l, BA 10.0 mg/l, NAA 0.00 mg/l, 30-th day
[5] = sucrose 50 g/l, BA 10.0 mg/l, NAA 0.01 mg/l, 30-th day
[6] = sucrose 50 g/l, BA 10.0 mg/l, NAA 0.05 mg/l, 30-th day
[7] = sucrose 70 g/l, BA 0.1 mg/l, NAA 0.01 mg/l, 30-th day
[8] = sucrose 70 g/l, BA 0.1 mg/l, NAA 0.05 mg/l, 30-th day
[9] = sucrose 70 g/l, BA 1.0 mg/l, NAA 0.00 mg/l, 30-th day
[10] = sucrose 70 g/l, BA 1.0 mg/l, NAA 0.01 mg/l, 30-th day
[11] = sucrose 70 g/l, BA 1.0 mg/l, NAA 0.05 mg/l, 30-th day
[12] = sucrose 70 g/l, BA 10.0 mg/l, NAA 0.00 mg/l, 30-th day
[13] = sucrose 70 g/l, BA 10.0 mg/l, NAA 0.01 mg/l, 30-th day
[14] = sucrose 70 g/l, BA 10.0 mg/l, NAA 0.05 mg/l, 30-th day

Compound: c1ccc(CNc2ncnc3[nH]cnc23)cc1 [BA, benzylaminopurine]
- Number of large root tubers (diameter of 1 mm or more) [1]: 11
- Total number of root tubers [1]: 16
- Number of large root tubers (diameter of 1 mm or more) [2]: 11
- Total number of root tubers [2]: 16
- Average number of root tubers (per a seedling) [3]: 4.8
- Number of large root tubers (diameter of 1 mm or more) [3]: 4
- Total number of root tubers [3]: 9
- Average number of root tubers (per a seedling) (sucrose 50 g/l, BA 1.0 mg/l, NAA 0.05 mg/l, 50-th day): 4.8
- Average number of root tubers (per a seedling) (sucrose 50 g/l, BA 2.0 mg/l, NAA 0.05 mg/l, 30-th day): 0.6
- Average number of root tubers (per a seedling) (sucrose 50 g/l, BA 2.0 mg/l, NAA 0.05 mg/l, 50-th day): 0.6
- Average number of root tubers (per a seedling) (sucrose 50 g/l, BA 5.0 mg/l, NAA 0.05 mg/l, 30-th day): 1.8
- Average number of root tubers (per a seedling) (sucrose 50 g/l, BA 5.0 mg/l, NAA 0.05 mg/l, 50-th day): 1.8
- Number of large root tubers (diameter of 1 mm or more) [4]: 6
- Total number of root tubers [4]: 7
- Number of large root tubers (diameter of 1 mm or more) [5]: 3
- Total number of root tubers [5]: 10
- Number of large root tubers (diameter of 1 mm or more) [6]: 4
- Total number of root tubers [6]: 8
- Number of large root tubers (diameter of 1 mm or more) [7]: 4
- Total number of root tubers [7]: 8
- Average number of root tubers (per a seedling) [8]: 4.4
- Number of large root tubers (diameter of 1 mm or more) [8]: 12
- Total number of root tubers [8]: 14
- Average number of root tubers (per a seedling) (sucrose 70 g/l, BA 0.1 mg/l, NAA 0.05 mg/l, 50-th day): 4.4
- Number of large root tubers (diameter of 1 mm or more) [9]: 11
- Total number of root tubers [9]: 16
- Number of large root tubers (diameter of 1 mm or more) [10]: 11
- Total number of root tubers [10]: 19
- Average number of root tubers (per a seedling) [11]: 0.8
- Number of large root tubers (diameter of 1 mm or more) [11]: 9
- Total number of root tubers [11]: 11
- Average number of root tubers (per a seedling) (sucrose 70 g/l, BA 1.0 mg/l, NAA 0.05 mg/l, 50-th day): 0.8
- Average number of root tubers (per a seedling) (sucrose 70 g/l, BA 2.0 mg/l, NAA 0.05 mg/l, 30-th day): 3.2
- Average number of root tubers (per a seedling) (sucrose 70 g/l, BA 2.0 mg/l, NAA 0.05 mg/l, 50-th day): 3.2
- Average number of root tubers (per a seedling) (sucrose 70 g/l, BA 5.0 mg/l, NAA 0.05 mg/l, 30-th day): 1.0
- Average number of root tubers (per a seedling) (sucrose 70 g/l, BA 5.0 mg/l, NAA 0.05 mg/l, 50-th day): 1.0
- Number of large root tubers (diameter of 1 mm or more) [12]: 3
- Total number of root tubers [12]: 3
- Number of large root tubers (diameter of 1 mm or more) [13]: 3
- Total number of root tubers [13]: 3
- Number of large root tubers (diameter of 1 mm or more) [14]: 8
- Total number of root tubers [14]: 14
- Average number of root tubers (per a seedling) (sucrose 90 g/l, BA 0.1 mg/l, NAA 0.05 mg/l, 30-th day): 2.4
- Average number of root tubers (per a seedling) (sucrose 90 g/l, BA 0.1 mg/l, NAA 0.05 mg/l, 50-th day): 2.4
- Average number of root tubers (per a seedling) (sucrose 90 g/l, BA 1.0 mg/l, NAA 0.05 mg/l, 30-th day): 1.6
- Average number of root tubers (per a seedling) (sucrose 90 g/l, BA 1.0 mg/l, NAA 0.05 mg/l, 50-th day): 1.6
- Average number of root tubers (per a seedling) (sucrose 90 g/l, BA 2.0 mg/l, NAA 0.05 mg/l, 30-th day): 1.0
- Average number of root tubers (per a seedling) (sucrose 90 g/l, BA 2.0 mg/l, NAA 0.05 mg/l, 50-th day): 1.0
- Average number of root tubers (per a seedling) (sucrose 90 g/l, BA 5.0 mg/l, NAA 0.05 mg/l, 30-th day): 0.8
- Average number of root tubers (per a seedling) (sucrose 90 g/l, BA 5.0 mg/l, NAA 0.05 mg/l, 50-th day): 0.8
